Test results reported in article PMC2542349, “Pharmacokinetic and metabolic effects of American ginseng (Panax quinquefolius) in healthy volunteers receiving the HIV protease inhibitor indinavir” (BMC Complementary and Alternative Medicine, 2008).
Several values for one entry are separate records, joined by “and”; a condition that tells them apart may be missing. Equal entries are not always repeated. Where two headings read alike, the source gives them in different places.

Key:
[1] = tested on: healthy volunteers; assay: Hyperinsulinemic euglycemic clamp (glucose utilization M, insulin sensitivity M/I); type: in vivo, human
Method: Peripheral sensitivity to glucose was assessed by the hyperinsulinemic euglycemic clamp technique. Subjects were admitted to the GCRC in the afternoon prior to the clamp procedure and maintained on a eucaloric diet (50% carbohydrate, 30% fat, and 20% protein). After an overnight fast, an intravenous catheter was placed in the antecubital vein for infusion of glucose and insulin. A second catheter for blood sampling was inserted in a dorsal vein of the hand in a retrograde fashion. The hand was placed into a 50°C warming box to "arterialize" the samples [20]. After baseline blood samples were obtained, a primed, continuous infusion of regular insulin (40 mU/m^2/min) was started, followed by a constant infusion of 20% dextrose at a variable rate, based on 5-minute measurements of blood glucose, in order to maintain blood glucose concentrations at each subject's baseline level ± 5%. Infusion continued for a total of 180 minutes.
Glucose utilization (M) was calculated as the average glucose infusion rate (milligrams of glucose/kilograms of FFM/minute) during the last 60 minutes of the infusion (i.e. steady state portion). FFM was derived from the baseline evaluation by dual energy X-ray absorptiometry (DXA).
During the final 60 minutes of the insulin clamp procedure, samples were obtained at 10 minutes intervals to determine insulin concentrations. M divided by the average insulin concentration in the final 60 minutes (I), which represents the amount of glucose metabolized per unit of insulin, was used as the primary measure of insulin sensitivity. […] Fasting serum glucose and homeostasis model assessment of insulin resistance (HOMA-IR), a widely used marker of insulin sensitivity, were assessed prior to the insulin clamp procedure at each of the inpatient study visits.
We then multiplied this value by 10^6 for ease of interpretation.

[2] = tested on: healthy volunteers; assay: Fasting serum glucose, HOMA-IR and body weight at inpatient visits; type: in vivo, human
Method: Body composition, including fat-free mass (FFM), was assessed at baseline using dual x-ray absorptiometry (Hologic-QDR 4500W, Hologic Co, Bedford, MA, intra-subject CV < 2%). BMI was assessed during each inpatient admission and was calculated as the weight in kilograms/height in meters squared.
During the final 60 minutes of the insulin clamp procedure, samples were obtained at 10 minutes intervals to determine insulin concentrations. M divided by the average insulin concentration in the final 60 minutes (I), which represents the amount of glucose metabolized per unit of insulin, was used as the primary measure of insulin sensitivity. During the second and third inpatient visits, the morning dose of IDV (and AG for the third inpatient visit) was given immediately prior to the beginning of the insulin clamp procedure. Fasting serum glucose and homeostasis model assessment of insulin resistance (HOMA-IR), a widely used marker of insulin sensitivity, were assessed prior to the insulin clamp procedure at each of the inpatient study visits.

[3] = tested on: healthy volunteers; assay: Safety assessment in healthy volunteers; type: in vivo, human
From the text: There were no serious adverse events. Three subjects developed transaminitis. In one subject (as previously mentioned), an AST elevation 3 times the upper limit of normal (Grade 2) after 3 days of IDV required study discontinuation. Three subjects were noted to have mild elevations in bilirubin. […] One patient reported an episode of vomiting and one subject reported dyspepsia after dose administration. All laboratory abnormalities and symptoms normalized after discontinuation of the study drugs. With the exception of the Grade 2 transaminites, all adverse events occurred during the co-administration of IDV and AG.

[4] = for Cmin: GM (95%CI)
[5] = tested on: healthy volunteers; settings: cited from earlier work
[6] = clinical; settings: human, plasma, oral

With `CC(C)(C)NC(=O)[C@@H]1CN(Cc2cccnc2)CCN1C[C@@H](O)C[C@@H](Cc1ccccc1)C(=O)N[C@H]1c2ccccc2C[C@H]1O` [IDV, Indinavir] the “average decrease in insulin sensitivity (M/I) compared to baseline” value ([1]; after 3 days of IDV 800 mg q8h, n = 11, p = 0.03) was 14.8 ± 5.9% and 15%, the “insulin sensitivity (M/I), mean” value ([1]; after 3 days of IDV, n = 11, mean ± SEM, baseline 0.113 ± 0.012) was 0.096 ± 0.014 mg/kg FFM/min per μU/ml of insulin and the “average glucose utilization (M)” value ([1]; after 3 days of IDV, n = 11, mean ± SEM, baseline 7.73 ± 0.75, p = 0.005) was 6.32 ± 0.78 mg/kg FFM/min. For the same compound, the “M/I divided by the IDV AUC2–3 (insulin sensitivity per unit of plasma IDV)” value ([1]; post hoc, 10 subjects, IDV alone vs IDV + AG, p = 0.03) was 60.9 ± 15.4 mg Glucose·10^6/kg FFM/min/μU/ml of insulin/ng·hr/mL IDV, the “M (multiplied times 10^6) divided by the IDV AUC2–3” value ([1]; post hoc, 10 subjects, IDV alone vs IDV plus AG, p = 0.05) was 4240.6 ± 1180.0 mg Glucose·10^6/kg FFM/min/ng·hr/mL IDV and the “Glucose utilization (M), mean” value ([1]; second (IDV alone) vs third (IDV + AG) clamp, ten subjects, mean ± SEM, p = 0.62) was 6.68 ± 0.76 mg/kg FFM/min. For the same compound, the “insulin sensitivity (M/I), mean” value ([1]; second (IDV alone) vs third (IDV + AG) clamp, ten subjects, mean ± SEM, p = 0.72) was 0.102 ± 0.013 mg/kg FFM/min per μU/ml of insulin, the Fasting glucose ([2]; before vs after 2 weeks of AG, p = 0.65) was 93.0 ± 1.4 mg/dL and the HOMA-IR ([2]; before vs after 2 weeks of AG, p = 0.95) was 1.4± 0.25. The HOMA-IR ([2]; second admission (after 3 days IDV), baseline 1.34 ± 0.32, p = 0.97) was 1.34 ± 0.23, the Fasting glucose ([2]; second admission (after 3 days IDV), baseline 92.4 ± 1.8, p = 0.27) was 95.0 ± 2.4 mg/dL and the tolerability ([3]; healthy volunteers) was “well tolerated”. For the same compound, the AST elevation ([3]; one subject, Grade 2, after 3 days of IDV, required study discontinuation) was 3 times the upper limit of normal, the “difference in IDV AUC2–3 (IDV alone vs IDV and AG)” value ([4]; 10 subjects, p = 0.22) was 430 ± 330 ng·h/mL and the Cmin ([4]; IDV + AG (Day 22), n = 13) was 62.78 (39.72–99.24) ng/mL. For the same compound, the Cmin ([4]; IDV alone (Day 7), n = 13) was 61.97 (42.72–89.88) ng/mL, the “AUC0–8 Day 22/Day 7 Geometric Mean Ratio (90% CI)” value ([4]; IDV with vs without AG, n = 13) was 0.89 (0.72–1.08) and the “Cmax Day 22/Day 7 Geometric Mean Ratio (90% CI)” value ([4]; IDV with vs without AG, n = 13) was 1.00 (0.77–1.29). The “tmax Day 22/Day 7 Geometric Mean Ratio (90% CI)” value ([4]; IDV with vs without AG, n = 13) was 0.75 (0.53–1.06), the “decrease in insulin sensitivity” value ([5]; healthy volunteers, IDV 800 mg q 8 hours) was 17% and the “decrease in insulin sensitivity” value ([5]; single dose of 1200 mg) was 34%. For the same compound, the AUC [6] was 1920 ± 483 ng·h/mL, the AUC ([6]; 800 mg) was 2350 ± 389 ng·h/mL and the Cmax ([6]; 800 mg) was 5620 ng/mL. For the same compound, the Tmax ([6]; 800 mg) was 58.8 min.
